Target: T1, RIP1 (Homo sapiens, UniProt Q13546)
T1 sequence (Q13546 1-671): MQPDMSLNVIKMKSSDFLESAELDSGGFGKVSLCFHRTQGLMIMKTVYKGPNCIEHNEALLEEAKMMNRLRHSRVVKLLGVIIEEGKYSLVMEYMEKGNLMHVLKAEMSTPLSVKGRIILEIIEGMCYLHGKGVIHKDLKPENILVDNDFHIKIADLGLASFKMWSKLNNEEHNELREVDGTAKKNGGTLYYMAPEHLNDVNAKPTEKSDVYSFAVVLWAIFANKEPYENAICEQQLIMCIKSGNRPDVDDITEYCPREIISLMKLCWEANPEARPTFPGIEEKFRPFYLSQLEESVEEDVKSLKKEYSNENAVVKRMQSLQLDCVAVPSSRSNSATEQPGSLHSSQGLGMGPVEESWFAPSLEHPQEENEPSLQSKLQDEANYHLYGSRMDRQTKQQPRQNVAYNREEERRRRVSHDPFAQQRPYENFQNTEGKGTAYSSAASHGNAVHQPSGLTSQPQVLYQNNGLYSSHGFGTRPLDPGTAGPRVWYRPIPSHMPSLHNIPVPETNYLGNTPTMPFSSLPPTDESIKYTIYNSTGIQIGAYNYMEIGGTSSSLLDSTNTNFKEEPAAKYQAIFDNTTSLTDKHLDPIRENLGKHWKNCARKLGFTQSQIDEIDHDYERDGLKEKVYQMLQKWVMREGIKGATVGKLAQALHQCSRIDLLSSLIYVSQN
Test: Cellular RIP1 inhibitory activity: HT-29 necroptosis (TNFα/SMAC mimetic/zVAD-FMK) CellTiter-Glo viability assay
Format: cell-based
Conditions: HT-29 cells, TNF-α 10 ng/ml + SMAC mimetic 6 μM + zVAD-FMK 10 μM, 20 hours, geometric mean, read-out: EC50 Values of in vitro Cellular RIP1 Inhibitory Activity

`Cc1nc(C)c(CN(C)C(=O)C2CCN(c3ncc(F)c(-c4c(C)cnn4C)n3)CC2)s1` [Compound 69, 1-(4-(1,4-dimethyl-1H-pyrazol-5-yl)-5-fluoropyrimidin-2-yl)-N-((2,4-dimethylthiazol-5-yl)methyl)-N-methylpiperidine-4-carboxamide] and `Cc1cnn(C)c1-c1nc(N2CCC(C(=O)NCc3nc(C)c(C)s3)CC2)ncc1F` [Compound 49, 1-(4-(1,4-dimethyl-1H-pyrazol-5-yl)-5-fluoropyrimidin-2-yl)-N-((4,5-dimethylthiazol-2-yl)methyl)piperidine-4-carboxamide] fall in the same range of EC50: 100 to 1000 nM for the first, 100 to 1000 nM for the second.

`Cc1cnn(C)c1-c1nc(N2CCC(C(=O)NCc3nccs3)CC2)ncc1F` [Compound 59, 1-(4-(1,4-dimethyl-1H-pyrazol-5-yl)-5-fluoropyrimidin-2-yl)-N-(thiazol-2-ylmethyl)piperidine-4-carboxamide] and `Cc1cnn(C)c1-c1cc(N2CCC(C(=O)NCc3nccs3)CC2)c(F)cn1` [Compound 63, 1-(2-(1,4-dimethyl-1H-pyrazol-5-yl)-5-fluoropyridin-4-yl)-N-(thiazol-2-ylmethyl)piperidine-4-carboxamide] fall in the same range of EC50: 100 to 1000 nM for the first, 100 to 1000 nM for the second.

`Cc1nc(C)n(-c2nc(N3CCC(C(=O)N(O)Cc4cc(F)cc(F)c4)CC3)ncc2F)n1` [Compound 1, N-(3,5-difluorobenzyl)-1-(4-(3,5-dimethyl-1H-1,2,4-triazol-1-yl)-5-fluoropyrimidin-2-yl)-N-hydroxypiperidine-4-carboxamide] and `Cc1ncc(CN(O)C(=O)C2CCN(c3ncc(F)c(-c4c(C)cnn4C)n3)CC2)s1` [Compound 24, 1-(4-(1,4-dimethyl-1H-pyrazol-5-yl)-5-fluoropyrimidin-2-yl)-N-hydroxy-N-((2-methylthiazol-5-yl)methyl)piperidine-4-carboxamide] fall in the same range of EC50: 0.1 to 100 nM for the first, 0.1 to 100 nM for the second.

`Cc1cnn(C)c1-c1nc(N2CCC(C(=O)N(C)Cc3ccn(C)n3)CC2)ncc1F` [Compound 81, 1-(4-(1,4-dimethyl-1H-pyrazol-5-yl)-5-fluoropyrimidin-2-yl)-N-methyl-N-((1-methyl-1H-pyrazol-3-yl)methyl)piperidine-4-carboxamide] and `Cc1cnn(C)c1-c1nc(N2CCC(C(=O)N(C)Cc3cncs3)CC2)ncc1F` [Compound 98, 1-(4-(1,4-dimethyl-1H-pyrazol-5-yl)-5-fluoropyrimidin-2-yl)-N-methyl-N-(thiazol-5-ylmethyl)piperidine-4-carboxamide] fall in the same range of EC50: 0.1 to 100 nM for the first, 0.1 to 100 nM for the second.

Compared with `Cc1cnn(C)c1-c1nc(N2CCC(C(=O)N[C@H](CO)c3ccccc3)CC2)ncc1F` [Compound 36, (S)-1-(4-(1,4-dimethyl-1H-pyrazol-5-yl)-5-fluoropyrimidin-2-yl)-N-(2-hydroxy-1-phenylethyl)piperidine-4-carboxamide], `Cc1cnn(C)c1-c1nc(N2CCC(C(=O)N(O)Cc3cccnc3)CC2)ncc1F` [Compound 38, 1-(4-(1,4-dimethyl-1H-pyrazol-5-yl)-5-fluoropyrimidin-2-yl)-N-hydroxy-N-(pyridin-3-ylmethyl)piperidine-4-carboxamide] is lower in EC50: 1000 to 10000 nM for the first, 0.1 to 100 nM for the second.

`Cc1cnn(C)c1-c1nc(N2CCC(C(=O)N(O)CC3=CCCCC3)CC2)ncc1F` [Compound 48, N-(cyclohex-1-en-1-ylmethyl)-1-(4-(1,4-dimethyl-1H-pyrazol-5-yl)-5-fluoropyrimidin-2-yl)-N-hydroxypiperidine-4-carboxamide] and `[2H]C([2H])(NC(=O)C1CCN(c2ncc(F)c(-c3c(C)cnn3C)n2)CC1)c1cc(F)cc(F)c1F` [Compound 60, 1-(4-(1,4-dimethyl-1H-pyrazol-5-yl)-5-fluoropyrimidin-2-yl)-N-((2,3,5-trifluorophenyl)methyl-d2)piperidine-4-carboxamide] fall in the same range of EC50: 0.1 to 100 nM for the first, 0.1 to 100 nM for the second.

Reference: patent publication US20240217963A1, “RECEPTOR-INTERACTING PROTEIN 1 INHIBITORS, PREPARATIONS, AND USES THEREOF” (SIRONAX LTD., priority 2021, published 2024)
